According to patent US8354372B2 (priority 2006, dated 2013):

Key:
[1] = human, plasma
[2] = molecular target: endoproteinase Glu-C (Endo Glu-C) (Staphylococcus aureus, UniProt P0C1U8); conditions: isolated enzyme glu c, pH 8
[3] = tested on: bovine adrenal chromaffin cells; assay type: cell-based
CCI-rats = conditions: rat, in vivo, po
α3-containing nAChRs = assay type: cell-based
[4] = tested on: animal model of inflammatory pain; conditions: in vivo; cited from earlier work
α9, α10 nAchR = conditions: cited from earlier work
[5] = tested on: unmyelinated C-fiber axons in isolated segments of peripheral human nerves; conditions: cited from earlier work
[6] = molecular target: α3, β4 subtype of the nAchR (Rattus norvegicus, UniProt P04757+P12392); conditions: cited from earlier work
[7] = tested on: streptozotocin-induced diabetic rat; conditions: in vivo; cited from earlier work
α4β4 nAChR = α4β4 nAChR (Homo sapiens, UniProt P30926+P43681); assay type: cell-based
α3α5β4 nAChR = α3α5β4 nAChR (Homo sapiens, UniProt P30926+P32297); assay type: cell-based
[8] = in vivo; cited from earlier work
α4β2 nAChR = α4β2 nAChR (Homo sapiens, UniProt P17787+P43681); assay type: cell-based
α3α6β2 nAChR = α3α6β2 nAChR (Homo sapiens, UniProt P17787+P32297+Q15825); assay type: cell-based; conditions: 30 µM
[9] = tested on: rat models of human neuropathic pain; conditions: in vivo; cited from earlier work
[10] = molecular target: homopentameric neuronal nAChR, α7 (Homo sapiens, UniProt P36544); assay type: cell-based; conditions: 10 µM
[11] = molecular target: nAChR combination α3α5β4 expressed in Xenopus oocytes; experiment: cell-based or functional assay

Sequence of homopentameric neuronal nAChR, α7 (P36544 23-502 limits assumed): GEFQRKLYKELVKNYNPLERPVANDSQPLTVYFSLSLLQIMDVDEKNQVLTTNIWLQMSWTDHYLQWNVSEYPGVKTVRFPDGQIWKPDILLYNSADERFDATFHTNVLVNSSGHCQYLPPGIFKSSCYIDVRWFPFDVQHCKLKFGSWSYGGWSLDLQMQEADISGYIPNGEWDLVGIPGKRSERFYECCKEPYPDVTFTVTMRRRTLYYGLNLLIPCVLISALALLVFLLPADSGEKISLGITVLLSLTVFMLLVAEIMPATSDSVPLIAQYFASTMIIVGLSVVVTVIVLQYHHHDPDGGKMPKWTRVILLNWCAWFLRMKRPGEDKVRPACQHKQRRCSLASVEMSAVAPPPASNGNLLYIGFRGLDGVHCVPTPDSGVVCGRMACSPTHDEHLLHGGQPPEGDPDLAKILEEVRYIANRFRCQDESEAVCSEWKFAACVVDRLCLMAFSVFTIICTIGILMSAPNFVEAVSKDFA
Sequence of α3, β4 subtype of the nAchR (P04757 26-499 limits assumed): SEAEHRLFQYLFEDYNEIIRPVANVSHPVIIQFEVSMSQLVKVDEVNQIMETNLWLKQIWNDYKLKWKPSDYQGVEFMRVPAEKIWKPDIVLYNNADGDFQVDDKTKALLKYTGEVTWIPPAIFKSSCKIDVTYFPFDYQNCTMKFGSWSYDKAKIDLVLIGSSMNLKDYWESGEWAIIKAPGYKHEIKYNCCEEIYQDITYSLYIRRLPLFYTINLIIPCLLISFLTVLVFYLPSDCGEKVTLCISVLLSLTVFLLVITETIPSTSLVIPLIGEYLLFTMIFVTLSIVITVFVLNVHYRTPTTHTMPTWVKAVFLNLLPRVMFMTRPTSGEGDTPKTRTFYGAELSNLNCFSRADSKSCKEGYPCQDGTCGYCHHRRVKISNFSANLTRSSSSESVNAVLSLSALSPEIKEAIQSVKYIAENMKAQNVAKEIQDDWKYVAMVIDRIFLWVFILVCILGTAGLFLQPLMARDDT
Sequence of α3, β4 subtype of the nAchR (P12392 21-495 limits assumed): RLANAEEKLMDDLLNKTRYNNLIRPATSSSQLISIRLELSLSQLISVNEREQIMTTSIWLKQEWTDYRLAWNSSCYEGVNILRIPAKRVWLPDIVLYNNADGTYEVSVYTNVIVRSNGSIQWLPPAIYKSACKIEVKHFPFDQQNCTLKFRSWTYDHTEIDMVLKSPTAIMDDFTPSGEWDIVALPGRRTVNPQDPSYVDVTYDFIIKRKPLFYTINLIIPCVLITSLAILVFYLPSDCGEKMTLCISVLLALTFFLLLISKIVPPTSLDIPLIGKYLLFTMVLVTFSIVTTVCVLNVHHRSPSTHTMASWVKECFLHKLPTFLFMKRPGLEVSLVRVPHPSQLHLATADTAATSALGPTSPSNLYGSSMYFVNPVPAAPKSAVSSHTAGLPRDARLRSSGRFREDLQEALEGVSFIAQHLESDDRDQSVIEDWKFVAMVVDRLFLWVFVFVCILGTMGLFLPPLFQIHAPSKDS
Sequence of α4β4 nAChR (P43681 29-627 limits assumed): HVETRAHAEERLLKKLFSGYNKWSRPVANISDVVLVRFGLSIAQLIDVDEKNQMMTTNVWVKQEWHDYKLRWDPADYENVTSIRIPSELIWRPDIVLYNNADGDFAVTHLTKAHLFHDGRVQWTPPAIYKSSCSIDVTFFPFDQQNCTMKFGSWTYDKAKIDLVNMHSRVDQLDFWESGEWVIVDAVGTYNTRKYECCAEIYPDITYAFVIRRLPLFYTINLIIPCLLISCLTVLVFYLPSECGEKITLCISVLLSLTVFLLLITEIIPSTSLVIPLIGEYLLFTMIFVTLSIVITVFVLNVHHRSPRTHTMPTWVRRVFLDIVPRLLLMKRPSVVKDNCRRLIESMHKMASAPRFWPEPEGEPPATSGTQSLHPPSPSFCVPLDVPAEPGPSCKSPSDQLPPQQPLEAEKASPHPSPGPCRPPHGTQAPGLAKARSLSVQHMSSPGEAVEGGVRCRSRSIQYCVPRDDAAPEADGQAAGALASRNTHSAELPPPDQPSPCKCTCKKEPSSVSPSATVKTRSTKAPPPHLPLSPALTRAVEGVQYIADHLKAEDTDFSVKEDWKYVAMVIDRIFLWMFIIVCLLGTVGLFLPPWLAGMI
Sequence of α4β4 nAChR (P30926 22-498 limits assumed): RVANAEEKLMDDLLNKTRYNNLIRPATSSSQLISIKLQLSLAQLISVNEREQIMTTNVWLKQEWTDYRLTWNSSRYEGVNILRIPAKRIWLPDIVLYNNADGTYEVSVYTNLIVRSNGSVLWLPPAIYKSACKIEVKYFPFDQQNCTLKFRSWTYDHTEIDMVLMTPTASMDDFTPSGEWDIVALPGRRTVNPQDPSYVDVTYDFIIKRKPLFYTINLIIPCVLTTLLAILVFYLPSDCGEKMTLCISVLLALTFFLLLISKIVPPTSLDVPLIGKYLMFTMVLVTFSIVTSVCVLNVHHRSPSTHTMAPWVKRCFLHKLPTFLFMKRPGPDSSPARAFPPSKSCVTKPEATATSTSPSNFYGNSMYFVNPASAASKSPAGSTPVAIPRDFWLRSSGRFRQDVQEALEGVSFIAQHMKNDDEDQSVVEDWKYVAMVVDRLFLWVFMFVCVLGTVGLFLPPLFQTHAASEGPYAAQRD
Sequence of α4β2 nAChR (P43681 29-627 limits assumed): as the sequence (P43681 29-627 limits assumed) above
Sequence of α4β2 nAChR (P17787 26-502 limits assumed): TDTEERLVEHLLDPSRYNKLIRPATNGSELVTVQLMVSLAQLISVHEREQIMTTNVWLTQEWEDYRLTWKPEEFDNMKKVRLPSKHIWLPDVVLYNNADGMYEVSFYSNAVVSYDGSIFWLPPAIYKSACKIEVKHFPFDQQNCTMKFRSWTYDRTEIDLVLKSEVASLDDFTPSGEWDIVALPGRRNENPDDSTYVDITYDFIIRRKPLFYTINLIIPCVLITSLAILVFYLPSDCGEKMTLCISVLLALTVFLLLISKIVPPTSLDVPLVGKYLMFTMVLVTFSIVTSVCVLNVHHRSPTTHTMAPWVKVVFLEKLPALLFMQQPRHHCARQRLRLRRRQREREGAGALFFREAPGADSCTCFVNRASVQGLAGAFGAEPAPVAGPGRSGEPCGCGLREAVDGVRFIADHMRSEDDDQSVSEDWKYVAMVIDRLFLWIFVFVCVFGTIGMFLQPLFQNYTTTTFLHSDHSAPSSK
Sequence of α3α6β2 nAChR (P32297 32-505 limits assumed): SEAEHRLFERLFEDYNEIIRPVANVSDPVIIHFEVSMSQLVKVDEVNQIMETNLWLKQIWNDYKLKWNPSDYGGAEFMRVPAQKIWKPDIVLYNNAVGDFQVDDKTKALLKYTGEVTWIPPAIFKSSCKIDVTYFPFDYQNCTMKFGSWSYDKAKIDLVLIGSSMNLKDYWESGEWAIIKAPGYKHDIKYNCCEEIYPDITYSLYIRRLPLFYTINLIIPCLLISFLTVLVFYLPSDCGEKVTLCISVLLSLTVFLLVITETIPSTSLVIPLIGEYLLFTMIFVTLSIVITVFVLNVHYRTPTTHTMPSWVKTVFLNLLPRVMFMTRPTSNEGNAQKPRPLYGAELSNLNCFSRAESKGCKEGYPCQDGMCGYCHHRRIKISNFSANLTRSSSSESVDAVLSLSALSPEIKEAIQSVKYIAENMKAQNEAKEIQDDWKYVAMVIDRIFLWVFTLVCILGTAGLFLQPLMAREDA
Sequence of α3α6β2 nAChR (Q15825 26-494 limits assumed): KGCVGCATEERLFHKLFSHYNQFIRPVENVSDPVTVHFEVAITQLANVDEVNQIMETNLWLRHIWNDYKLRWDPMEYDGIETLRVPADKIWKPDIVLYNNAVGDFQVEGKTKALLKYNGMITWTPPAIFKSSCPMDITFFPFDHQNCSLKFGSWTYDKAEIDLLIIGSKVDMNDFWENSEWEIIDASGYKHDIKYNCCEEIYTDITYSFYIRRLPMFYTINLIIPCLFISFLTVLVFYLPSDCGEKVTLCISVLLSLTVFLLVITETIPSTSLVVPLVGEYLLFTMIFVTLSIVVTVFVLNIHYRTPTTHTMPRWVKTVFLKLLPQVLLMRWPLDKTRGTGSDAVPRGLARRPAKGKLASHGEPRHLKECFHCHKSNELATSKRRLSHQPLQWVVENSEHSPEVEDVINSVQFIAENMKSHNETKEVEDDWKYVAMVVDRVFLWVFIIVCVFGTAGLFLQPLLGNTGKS
Sequence of α3α6β2 nAChR (P17787 26-502 limits assumed): as the sequence (P17787 26-502 limits assumed) above
Sequence of endoproteinase Glu-C (Endo Glu-C) (P0C1U8 69-336 limits assumed): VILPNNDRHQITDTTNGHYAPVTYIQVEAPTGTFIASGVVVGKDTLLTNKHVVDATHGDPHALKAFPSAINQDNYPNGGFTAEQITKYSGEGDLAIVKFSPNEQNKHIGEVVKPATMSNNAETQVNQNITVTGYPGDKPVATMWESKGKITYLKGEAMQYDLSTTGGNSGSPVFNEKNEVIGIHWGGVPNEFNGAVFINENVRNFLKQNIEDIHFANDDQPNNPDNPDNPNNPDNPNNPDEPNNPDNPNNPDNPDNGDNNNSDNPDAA

Compound `CC(C)C[C@@H]1NC(=O)[C@H](CC(N)=O)NC(=O)[C@H](CO)NC(=O)[C@H](Cc2cnc[nH]2)NC(=O)[C@H](CCC(=O)O)NC(=O)[C@H](CC(C)C)NC(=O)[C@H](Cc2cnc[nH]2)NC(=O)[C@@H]2CSSC[C@H](NC(=O)CN)C(=O)N[C@@H](CSSC[C@@H](C(N)=O)NC1=O)C(=O)N[C@@H](CO)C(=O)N[C@@H](CC(N)=O)C(=O)N1CCC[C@H]1C(=O)N[C@@H](C(C)C)C(=O)N2` [MII] has a half-life [1] of about 16 h and a half-life [2] of about 10 h.
With `CC[C@H](C)[C@@H]1NC(=O)[C@H](CCC(=O)O)NC(=O)[C@@H]2CCCN2C(=O)[C@H](Cc2c[nH]cn2)NC(=O)[C@H](CC(=O)O)NC(=O)[C@H](Cc2ccc(O)cc2)NC(=O)[C@H](CC(N)=O)NC(=O)[C@@H]2CSSC[C@@H]3NC(=O)CNC(=O)CNC(=O)CNC(=O)[C@H](C)NC(=O)[C@H](C)NC(=O)CNC(=O)CNC(=O)[C@H](CSSC[C@H](NC3=O)C(=O)N[C@@H](CO)C(=O)N[C@@H](CC(=O)O)C(=O)N3CCC[C@H]3C(=O)N[C@@H](CCCNC(=N)N)C(=O)N2)NC1=O` [cVc1.1-6] the “inhibition of catecholamine release, activity relative to linear Vc1.1” value [3] was “identical, within experimental error” and the ED50 (CCI-rats) was about 1 mg/kg.
For Vc1.1, the “antagonism of ACh-evoked currents” value (α3-containing nAChRs) is given as “did not antagonise ACh-evoked currents”, the “detectable response alone (>50 nA)” value (α3-containing nAChRs) is given as “nor elicit a detectable response alone” and the “efficacy in an animal model of inflammatory pain” value [4] is given as “effective”. The “affinity for α9, α10 nAchR relative to α3, β4 nAchR” value (α9, α10 nAchR) was “one hundred fold higher”, the IC50 (α9, α10 nAchR; read-out: affinity for the α9, α10 nAchR) was 22.9 nM and the “effect on nicotine-induced increase in axonal excitability” value [5] was “antagonize”. The IC50 [6] was 4200 nM, the “time after dosing at which anti allodynic effect was observed” value [7] was at most 1 h and the “inhibition of ACh-evoked currents” value (α4β4 nAChR) was “failed to inhibit”. The “lower potency to inhibit α3α5β4” value (α3α5β4 nAChR) was over 5 fold, the “analgesic activity relative to Ziconotide” value [8] was “more active than Ziconotide” and the “inhibition of ACh-evoked currents” value (α4β2 nAChR) was “failed to inhibit”. For the same compound, the “inhibition of ACh-induced current amplitude” value (α3α6β2 nAChR) was about 50%, the “effect on neuropathic pain in three rat models” value [9] was “alleviate neuropathic pain” and the “functional recovery of injured neurons” value [9] was “accelerate the functional recovery of injured neurons”. For the same compound, the “inhibition of the ACh-evoked current” value [10] was 14±2%.
Work on α-conotoxin Vc1.1 (peptide) yielded a potency to inhibit ACh-evoked current (fold lower potency) [11] of over 5.
